This is an account of results in article PMC7707621, “Oxidized Juncuenin B Analogues with Increased Antiproliferative Activity on Human Adherent Cell Lines: Semisynthesis and Biological Evaluation” (Journal of Natural Products, 2020).

One assay concerns MCF-7 cells. Nature of the assay: MTT antiproliferative assay on MCF-7. It is filed as cell-based, human. The settings on record: Homo sapiens; for inhibition at 10 µM: MCF7, 10 μM; for inhibition at 10 µM / inhibition at 30 µM: read-out: Growth inhibition (% ± SEM), MCF-7; for inhibition at 30 µM: MCF7, 30 μM; for IC50: MCF7, MTT, 0.1–30 μM, 72 h, mean ± SEM, read-out: calculated IC50 values, MCF-7. As for the experimental part:
(§1) The antiproliferative assays of the products were carried out by a standard MTT method on human breast (MCF-7, T47D), cervical (HeLa, SiHa, C33A), and ovarian (A2780) cancer cells, and NIH/3T3 mouse embryonic fibroblast cell lines. In the first step, the diastereomeric and racemic mixtures 1–11 and the starting compound, juncuenin B, were tested to obtain information about their antiproliferative activity.
(§2) The antiproliferative activity and tumor selectivity of the compounds were measured by standard MTT assays. Tumor cell lines MCF-7, T47D, HeLa, A2780, and noncancerous NIH/3T3 were provided by European Collection of Authenticated Cell Cultures (ECACC, Salisbury, UK); cell lines SiHa and C33A by LGC Standards GmbH (Wesel, Germany). All chemicals and materials used for the antiproliferative assays were purchased from Sigma Aldrich Ltd. (Budapest, Hungary).
(§3) Growth-inhibition properties of racemates and pure enantiomer compounds were determined by standard MTT assays on six human malignant gynecological cell lines (MCF-7, T47D, HeLa, SiHa, C33A, A2780). To investigate tumor selectivity, the MTT assay was repeated on mouse embryonic fibroblast cells (NIH/3T3) under the same conditions. All cell lines were maintained in minimal essential medium (MEM) supplemented with 10% fetal bovine serum, 1% nonessential amino acids, and 1% penicillin–streptomycin–amphotericin B mixture, and were stored in humidified air containing 5% CO2 at 37 °C. All cell types were seeded into 96–well plates at a density of 5000 with the exception of C33a, which was seeded at a density of 10 000 and treated by increasing concentrations (0.1–30 μM) of the compounds for 72 h under cell culturing conditions. After the incubation, 5 mg/mL MTT [3-(4,5-dimethylthiazol-2-yl)-2,5-diphenyltetrazolium bromide] solution was added to samples for 4 h and precipitated blue formazan crystals were dissolved in DMSO. Absorbance values of the samples were measured at 545 nm using a microplate reader (Stat Fax-2100, Awareness Technologies Inc., Palm City, FL, USA) and untreated cells were used as control. Normalized sigmoidal dose–response curves were fitted to the determined data and the IC50 values were calculated by GraphPad Prism 5.01 (GraphPad Software, San Diego, CA, USA). Cisplatin (Ebewe Pharma GmbH, Unterach, Austria) was used as a reference agent in the same concentration range.

For a further assay, the system named is HeLa cells. Nature of the assay: MTT antiproliferative assay on HeLa. It is filed as cell-based, human. The settings on record: Homo sapiens, HeLa; for inhibition at 10 µM / inhibition at 30 µM: read-out: Growth inhibition (% ± SEM), HeLa. As for the experimental part: as §1, §2, §3
Background: Tetrazolium dyes change colour on reduction, which living cells bring about.

Another assay relates to A2780 cells. Nature of the assay: MTT antiproliferative assay on A2780. The settings on record: Homo sapiens; for inhibition at 10 µM: A2780, 10 μM; for inhibition at 10 µM / inhibition at 30 µM: read-out: Growth inhibition (% ± SEM), A2780; for inhibition at 30 µM: A2780, 30 μM. In kind it is cell-based, human. As for the experimental part: as §1, §2, §3
Another assay concerns SiHa cells. Nature of the assay: MTT antiproliferative assay on SiHa. In kind it is cell-based, human. The conditions noted are these: Homo sapiens, SiHa; for inhibition at 10 µM / inhibition at 30 µM: read-out: Growth inhibition (% ± SEM), SiHa; for IC50: MTT, 0.1–30 μM, 72 h, mean ± SEM, read-out: calculated IC50 values, SiHa. As for the experimental part: as §1, §2, §3
The test system of the next assay is T47D cells. Nature of the assay: MTT antiproliferative assay on T47D. It is filed as cell-based, human. The conditions noted are these: Homo sapiens, T47D; for inhibition at 10 µM / inhibition at 30 µM: read-out: Growth inhibition (% ± SEM), T47d. As for the experimental part:
as §1, §2, §3

In assay [1] the test system is NIH/3T3 mouse embryonic fibroblast cells. Nature of the assay: MTT assay for tumor selectivity on NIH/3T3. In kind it is cell-based. The settings on record: for inhibition at 10 µM / inhibition at 30 µM: read-out: Growth inhibition (% ± SEM), NIH. As for the experimental part: as §1, §2, §3
The test system of the next assay is C33A cells. The assay is described as follows: MTT antiproliferative assay on C33A. In kind it is cell-based, human. The conditions noted are these: Homo sapiens, C-33-A, read-out: Growth inhibition (% ± SEM), C33a. As for the experimental part:
as §1, §2, §3

Assay [2] deals with MCF-7, T47D, HeLa, SiHa, C33A, A2780 cells. The assay is described as follows: MTT antiproliferative assay, panel of human gynecological cancer cell lines (result in words). In kind it is cell-based. As for the experimental part:
as §1, §2, §3

Structures are written as SMILES. “Also recorded” adds a separate entry of the source. A value given as a limit tells only on which side of the number the result lay.

One may read the inhibition as how much of the control response was suppressed. Regarding `C=CC1=C(C)C(=O)C=C2C3=C(CC[C@@]21OC)[C@@](C)(OC)C(=O)C=C3` [Compound 1a, 2,6-dioxo-1,8a-dimethoxy-1,7-dimethyl-8-vinyl-9,10-dihydrophenanthrenes], the inhibition at 10 µM is less than 10% in the assay with MCF-7 cells; less than 10% in the assay with HeLa cells; 25.1 ± 1.6% in the assay on A2780 cells; less than 10% in the assay with SiHa cells; 14.1 ± 1.87% in the assay with T47D cells; less than 10% in assay [1] (Mus musculus, NIH3T3). The inhibition at 10 µM in the assay on C33A cells stood at 19.5 ± 2.08%. Besides, the inhibition at 30 µM with MCF-7 cells is 33.1 ± 1.15%; in the assay with HeLa cells, 47.8 ± 3.28%; in the assay on A2780 cells, 87.7 ± 1.1%; in the assay with SiHa cells, less than 10%; in the assay with T47D cells it was 32.5 ± 1.96%; in assay [1] (Mus musculus, NIH3T3), 32.1 ± 1.88%. In addition, the inhibition at 30 µM in the assay on C33A cells came out at 87.97 ± 0.34%. Also, the IC50 was greater than 30 µM in the assay with MCF-7 cells; greater than 30 µM in the assay with HeLa cells (MTT, 0.1–30 μM, 72 h, mean ± SEM, read-out: calculated IC50 values, HeLa); 13.3 ± 1.5 µM in the assay with A2780 cells (A2780, MTT, 0.1–30 μM, 72 h, mean ± SEM, read-out: calculated IC50 values, A2780); greater than 30 µM with SiHa cells; greater than 30 µM in the assay with T47D cells (MTT, 0.1–30 μM, 72 h, mean ± SEM, read-out: calculated IC50 values, T47D); greater than 30 µM in assay [1] (Mus musculus, NIH3T3, MTT, 0.1–30 μM, 72 h, mean ± SEM, read-out: calculated IC50 values, NIH/3T3).

Take `C=CC1=C(C)C(=O)C=C2C3(OC)C=CC(=O)C(C)=C3CCC21OC` (stereo not drawn) [Compound 2a]: the inhibition at 10 µM is 40.3 ± 0.95% in the assay with MCF-7 cells; 32.3 ± 4.15% in the assay on HeLa cells; less than 10% in the assay on A2780 cells; 15.4 ± 1.68% in the assay with SiHa cells; less than 10% in the assay on T47D cells; less than 10% with C33A cells. Further, the inhibition at 30 µM with MCF-7 cells turned out to be 30.5 ± 1.82%; in the assay with HeLa cells, 30 ± 0.74%; with A2780 cells it was 54.6 ± 3.67%; with SiHa cells, 16.9 ± 2.31%; in the assay on T47D cells, 19.8 ± 0.61%; in the assay on C33A cells, 31.9 ± 3.75%. Further, the “antiproliferative activity (in words)” value in assay [2] is listed as “did not exert antiproliferative activity; also recorded: No significant activities”.

As to `C=CC1=C(C)C(=O)C=C2c3ccc(O)c(C)c3CC[C@@]21OCC` [Compound 7a, 8a-ethoxy-1,7-dimethyl-6-oxo-8-vinyl-9,10-dihydrophenanthrene-2-ols], the inhibition at 10 µM with MCF-7 cells amounted to 41.7 ± 1.37%; in the assay on HeLa cells, 71.1 ± 1.57%; in the assay with A2780 cells, 82.1 ± 0.54%; with SiHa cells it was 17 ± 1.88%; with T47D cells, 57.4 ± 2.46%; in assay [1] (Mus musculus, NIH3T3), 23.3 ± 1.48%. Besides, in the assay on C33A cells, the inhibition at 10 µM is 73.18 ± 0.61%. In addition, the inhibition at 30 µM was 54.5 ± 1.33% with MCF-7 cells; 86.1 ± 1.29% in the assay with HeLa cells; 84.75 ± 0.4% in the assay with A2780 cells; less than 10% in the assay on SiHa cells; 57 ± 1.24% with T47D cells; 33.8 ± 1.74% in assay [1] (Mus musculus, NIH3T3). Further, the inhibition at 30 µM in the assay on C33A cells came out at 86.42 ± 0.5%. For the same compound, the IC50 with MCF-7 cells was 20.6 ± 0.3 µM; in the assay on SiHa cells, greater than 30 µM. The “activity against nontumoral NIH/3T3 cells (in words)” value in assay [1] (MTT) was “inactive”.

As for `C=Cc1c(C)c(O)cc2c3c(ccc12)C(C)(OCC)C(=O)C=C3` (stereo not drawn) [Compound 8], the inhibition at 10 µM with MCF-7 cells is 13 ± 0.63%; in the assay on HeLa cells it was less than 10%; with A2780 cells, less than 10%; in the assay on SiHa cells, less than 10%; in the assay with T47D cells it was less than 10%; in the assay with C33A cells it was less than 10%. Further, the inhibition at 30 µM with MCF-7 cells is 23.9 ± 2.11%; in the assay on HeLa cells, 22.2 ± 1.15%; in the assay with A2780 cells it was less than 10%; with SiHa cells, 16.7 ± 2.83%; in the assay on T47D cells it was 14.1 ± 2.02%; in the assay with C33A cells it was 21.3 ± 1.52%. Further, the “antiproliferative activity (in words)” value in assay [2] was “did not exert antiproliferative activity; also recorded: No significant activities”.
